Several values for one entry are separate records, joined by “and”; a condition that tells them apart may be missing. Equal entries are not always repeated. Where two headings read alike, the source gives them in different places.
How the values were obtained:
[1] = target: NRAS G12C (Homo sapiens (Human), UniProt P01111+P62937, G12C); experiment: Ras-Raf (BRAF RBD) disruption / FRET / MOA assay, NRAS G12C; assay type: biochemical; settings: read-out: IC50* NRAS G12C FRET data
Procedure, shortened: (§1)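 Compound-driven ternary complex of nucleotide-loaded Ras with cyclophilin A, disrupting BRAF RBD binding. 10-point 3-fold dilution from 30 μM final, 3 h at 25° C, then anti-His Eu-W1024 (10 nM) and anti-GST allophycocyanin (50 nM) for 1.5 h. IC50 from TR-FRET ratio decrease versus DMSO.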

[2] = test system: NCI-H358 (K-Ras G12C); experiment: CellTiter-Glo cell viability assay, NCI-H358; assay type: cell-based, human; settings: NCI-H358, 5-day treatment
Procedure, shortened: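 Viability of K-Ras mutant lines is measured by ATP luminescence after five days of compound treatment. Percent of DMSO control is calculated and dose-response data are fitted with a four-parameter logistic equation.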

[3] = target: KRAS WT (Homo sapiens (Human), UniProt P01116+P62937); experiment: Ras-Raf (BRAF RBD) disruption / FRET / MOA assay, KRAS WT; assay type: biochemical; settings: read-out: IC50* KRAS WT FRET data
Procedure, shortened: as §1

[4] = target: KRAS G12D (Homo sapiens (Human), UniProt P01116+P62937, G12D); experiment: Ras-Raf (BRAF RBD) disruption / FRET / MOA assay, KRAS G12D; assay type: biochemical; settings: Ras-Raf disruption/FRET/MOA assay; class symbols; read-out: KRAS G12D FRET data IC50
Procedure, shortened: as §1

[5] = target: KRAS G12V (Homo sapiens (Human), UniProt P01116+P62937, G12V); experiment: Ras-Raf (BRAF RBD) disruption / FRET / MOA assay, KRAS G12V; assay type: biochemical; settings: read-out: IC50* KRAS G12V FRET data
Procedure, shortened: as §1

[6] = test system: NCI-H358 cells (K-Ras G12C); experiment: Potency assay: pERK in NCI-H358 cells; assay type: cell-based, human; settings: Homo sapiens
Procedure, shortened: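 4 h cpd, 37 °C; 10-pt 3-fold series, 10 mM DMSO top stock, duplicates. Readout pERK: AlphaLISA SureFire Ultra or In-Cell Western (IR-800CW secondary, DRAQ5 DNA stain). IC50, 4-PL fit vs log conc.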

[7] = target: K-Ras G12C (Homo sapiens (Human), UniProt P01116+P62937, G12C); experiment: Ras-Raf (BRAF RBD) disruption / FRET / MOA assay, KRAS G12C; assay type: biochemical
Procedure, shortened: as §1

[8] = target: KRAS G12S (Homo sapiens (Human), UniProt P01116+P62937, G12S); experiment: Ras-Raf (BRAF RBD) disruption / FRET / MOA assay, KRAS G12S; assay type: biochemical; settings: Ras-Raf disruption/FRET/MOA assay; class symbols; read-out: KRAS G12S FRET data IC50
Procedure, shortened: as §1

[9] = target: KRAS G13D (Homo sapiens (Human), UniProt P01116+P62937, G13D); experiment: Ras-Raf (BRAF RBD) disruption / FRET / MOA assay, KRAS G13D; assay type: biochemical; settings: read-out: IC50* KRAS G13D FRET data
Procedure, shortened: as §1

[10] = target: K-Ras G13C (Homo sapiens (Human), UniProt P01116+P62937, G13C); experiment: Ras-Raf (BRAF RBD) disruption / FRET / MOA assay, KRAS G13C; assay type: biochemical
Procedure, shortened: as §1

[11] = Homo sapiens, NCI-H358, 120 h, class symbols, read-out: Additional H358 Cell Viability assay data (K-Ras G12C, IC50)
[12] = NCI-H358, H358 KRAS G12C, read-out: pERK EC50
[13] = KRAS G12C, Ras-Raf disruption/FRET/MOA assay, read-out: IC50* KRAS G12C FRET data
[14] = KRAS G13C, Ras-Raf disruption/FRET/MOA assay, read-out: IC50* KRAS G13C FRET data

Sequence of K-Ras G12C (P01116-2 other isoform, or with tags, fused parts or gaps G12C): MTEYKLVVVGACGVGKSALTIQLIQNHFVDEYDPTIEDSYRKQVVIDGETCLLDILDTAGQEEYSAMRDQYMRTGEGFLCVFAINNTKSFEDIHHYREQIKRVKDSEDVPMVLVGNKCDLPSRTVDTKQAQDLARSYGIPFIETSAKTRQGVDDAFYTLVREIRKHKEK
Sequence of K-Ras G12C (P62937 whole entry): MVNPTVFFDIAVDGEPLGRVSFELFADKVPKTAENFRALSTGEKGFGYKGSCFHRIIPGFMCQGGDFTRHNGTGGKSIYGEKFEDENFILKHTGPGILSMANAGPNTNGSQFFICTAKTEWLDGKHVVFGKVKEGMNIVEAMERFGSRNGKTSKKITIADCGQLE
Sequence of K-Ras G13C (P01116-2 other isoform, or with tags, fused parts or gaps G13C): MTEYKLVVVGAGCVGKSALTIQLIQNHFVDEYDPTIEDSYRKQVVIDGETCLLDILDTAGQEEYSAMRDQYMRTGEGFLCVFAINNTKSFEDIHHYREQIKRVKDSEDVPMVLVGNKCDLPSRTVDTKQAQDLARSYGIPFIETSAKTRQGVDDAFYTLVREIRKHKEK
Sequence of K-Ras G13C (P62937 whole entry): as the sequence (P62937 whole entry) above
Sequence of KRAS G13D (P01116-2 other isoform, or with tags, fused parts or gaps G13D): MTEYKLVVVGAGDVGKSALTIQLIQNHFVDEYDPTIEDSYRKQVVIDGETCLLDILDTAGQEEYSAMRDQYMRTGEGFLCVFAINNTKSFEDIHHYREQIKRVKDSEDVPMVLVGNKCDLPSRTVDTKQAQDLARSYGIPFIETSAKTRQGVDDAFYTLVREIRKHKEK
Sequence of KRAS G13D (P62937 whole entry): as the sequence (P62937 whole entry) above
Sequence of KRAS G12V (P01116-2 other isoform, or with tags, fused parts or gaps G12V): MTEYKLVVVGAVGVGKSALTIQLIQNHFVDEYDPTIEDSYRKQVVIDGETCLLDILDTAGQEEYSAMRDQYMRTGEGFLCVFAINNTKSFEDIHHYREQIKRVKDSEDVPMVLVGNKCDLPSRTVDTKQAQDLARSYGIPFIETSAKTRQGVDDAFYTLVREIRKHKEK
Sequence of KRAS G12V (P62937 whole entry): as the sequence (P62937 whole entry) above
Sequence of KRAS G12S (P01116-2 other isoform, or with tags, fused parts or gaps G12S): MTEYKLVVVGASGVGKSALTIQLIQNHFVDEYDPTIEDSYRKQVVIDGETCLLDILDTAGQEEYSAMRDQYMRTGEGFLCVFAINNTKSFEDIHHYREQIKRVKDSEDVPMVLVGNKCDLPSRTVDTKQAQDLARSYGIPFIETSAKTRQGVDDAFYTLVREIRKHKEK
Sequence of KRAS G12S (P62937 whole entry): as the sequence (P62937 whole entry) above
Sequence of KRAS G12D (P01116-2 other isoform, or with tags, fused parts or gaps G12D): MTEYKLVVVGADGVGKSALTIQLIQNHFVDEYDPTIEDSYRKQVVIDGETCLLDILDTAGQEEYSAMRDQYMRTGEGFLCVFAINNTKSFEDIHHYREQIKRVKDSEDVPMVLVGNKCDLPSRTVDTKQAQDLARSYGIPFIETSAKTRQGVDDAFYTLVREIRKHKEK
Sequence of KRAS G12D (P62937 whole entry): as the sequence (P62937 whole entry) above
Sequence of NRAS G12C (P01111 whole entry G12C): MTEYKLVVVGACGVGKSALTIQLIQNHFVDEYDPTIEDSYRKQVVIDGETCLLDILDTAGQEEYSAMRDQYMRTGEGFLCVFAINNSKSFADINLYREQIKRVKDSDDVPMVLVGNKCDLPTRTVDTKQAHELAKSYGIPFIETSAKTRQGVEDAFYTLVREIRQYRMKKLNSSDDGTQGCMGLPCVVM
Sequence of NRAS G12C (P62937 whole entry): as the sequence (P62937 whole entry) above
Sequence of KRAS WT (P01116-2 other isoform, or with tags, fused parts or gaps): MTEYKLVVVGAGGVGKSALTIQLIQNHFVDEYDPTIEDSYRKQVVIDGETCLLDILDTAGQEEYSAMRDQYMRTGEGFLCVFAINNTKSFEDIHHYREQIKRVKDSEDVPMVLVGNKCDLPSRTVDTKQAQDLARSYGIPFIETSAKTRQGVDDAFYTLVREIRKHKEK
Sequence of KRAS WT (P62937 whole entry): as the sequence (P62937 whole entry) above

IC50 [1]	IC50 [2, 11] [nM]	IC50 [3]	IC50 [4]	IC50 [5]	EC50 [6, 12] [nM]	IC50 [7, 13] [nM]	IC50 [8]	IC50 [9]	IC50 [10, 14]	IC50 ([2]; Homo sapiens, NCI-H358, 120 h, read-out: H358 Cell Viability (K-Ras G12C) IC50) [nM]	EC50 ([6]; NCI-H358 cells, 4 hours, read-out: H358 pERK (K-Ras G12C) EC50) [nM]	IC50 ([7]; with Cyclophilin A, BRAF RBD, read-out: FRET (K-Ras G12C) IC50) [nM]	IC50 ([10]; with Cyclophilin A, BRAF RBD, read-out: FRET (K-Ras G13C) IC50) [nM]	IC50 ([2]; class symbols, read-out: Additional H358 Cell Viability assay data (K-Ras G12C, IC50)) [nM]	SMILES
10 to 100 nM	10 to 100	1000 to 10000 nM	1000 to 10000 nM	1000 to 10000 nM	< 5000	10 to 100	1000 to 10000 nM	1000 to 10000 nM	100 to 1000 nM	–	–	–	–	–	C=CC(=O)N1CCC2(C1)OCN([C@H](C(=O)N[C@H]1Cc3cccc(c3)-c3ccc4c(c3)c(c(-c3cccnc3[C@H](C)OC)n4CC)CC(C)(C)COC(=O)[C@@H]3CCCN(N3)C1=O)C(C)C)C2=O (stereo partly drawn) [Example A459]
< 10 nM	< 10	100 to 1000 nM	1000 to 10000 nM	10 to 100 nM	< 5000	< 10	100 to 1000 nM	100 to 1000 nM	10 to 100 nM	–	–	–	–	–	CCn1c(-c2cccnc2[C@H](C)OC)c2c3cc(ccc31)-c1cc(O)cc(c1)C[C@H](NC(=O)[C@H](C(C)C)N(C)C(=O)[C@H]1CCN(C(=O)C#CCN3[C@H](C)COC[C@@H]3C)C1)C(=O)N1CCC[C@H](N1)C(=O)OCC(C)(C)C2 (atropisomer, axis not shown) [Example A245]
1000 to 10000 nM	> 1000	> 10000 nM	> 10000 nM	> 10000 nM	< 5000	100 to 1000	> 10000 nM	> 10000 nM	> 10000 nM	4	13	23	7480	–	CCn1c(-c2cncnc2)c2c3cc(ccc31)-c1cccc(c1)[C@@H](OC)[C@H](NC(=O)[C@H](C(C)C)N(C)C(=O)[C@H]1CCN(C(=O)C#CCN3CCOCC3)C1)C(=O)N1CCC[C@H](N1)C(=O)OCC(C)(C)C2 [Example A208]
< 10 nM	100 to 1000	1000 to 10000 nM	1000 to 10000 nM	> 10000 nM	< 5000	< 10	> 10000 nM	1000 to 10000 nM	10 to 100 nM	–	–	–	–	–	CCn1c(-c2ccccc2CN(C)C)c2c3cc(ccc31)-c1cc(O)cc(c1)C[C@H](NC(=O)[C@H](C(C)C)N(C)C(=O)c1ncc(NC(=O)/C=C/CN(C)C)n1C)C(=O)N1CCC[C@H](N1)C(=O)OCC(C)(C)C2 [Example A116]
10 to 100 nM	> 1000	1000 to 10000 nM	1000 to 10000 nM	100 to 1000 nM	< 5000	10 to 100	100 to 1000 nM	1000 to 10000 nM	10 to 100 nM	–	–	–	–	–	C/C=C(\C#N)C(=O)N1CC[C@H](C(=O)N(C)[C@H](C(=O)N[C@H]2Cc3cc(O)cc(c3)-c3ccc4c(c3)c(c(-c3cccnc3COC)n4CC)CC(C)(C)COC(=O)[C@@H]3CCCN(N3)C2=O)C(C)C)C1 [Example A178]
10 to 100 nM and < 10 nM	10 to 100	1000 to 10000 nM and 10 to 100 nM	1000 to 10000 nM and 100 to 1000 nM	100 to 1000 nM and 10 to 100 nM	< 5000	10 to 100	1000 to 10000 nM and 10 to 100 nM	1000 to 10000 nM and 10 to 100 nM	10 to 100 nM and < 10 nM	–	–	–	–	< 10	CCn1c(-c2cncnc2C(C)C)c2c3cc(ccc31)-c1cc(O)cc(c1)C[C@H](NC(=O)[C@H](C(C)C)N(C)C(=O)[C@H]1CCN(C(=O)C#CCN(C)C)C1)C(=O)N1CCC[C@H](N1)C(=O)OCC(C)(C)C2 (atropisomer, axis not shown) [Example A155]

SMILES	IC50 [1]	IC50 [2, 11] [nM]	IC50 [3]	IC50 [4]	IC50 [5]	EC50 [6, 12] [nM]	IC50 [7, 13] [nM]	IC50 [8]	IC50 [9]	IC50 [10, 14]	IC50 ([2]; Homo sapiens, NCI-H358, 120 h, read-out: H358 Cell Viability (K-Ras G12C) IC50) [nM]	EC50 ([6]; NCI-H358 cells, 4 hours, read-out: H358 pERK (K-Ras G12C) EC50) [nM]	IC50 ([7]; with Cyclophilin A, BRAF RBD, read-out: FRET (K-Ras G12C) IC50) [nM]	IC50 ([10]; with Cyclophilin A, BRAF RBD, read-out: FRET (K-Ras G13C) IC50) [nM]	IC50 ([2]; class symbols, read-out: Additional H358 Cell Viability assay data (K-Ras G12C, IC50)) [nM]
CCn1c(-c2cccnc2COC)c2c3cc(ccc31)-c1cccc(c1)C[C@H](NC(=O)[C@H](C(C)C)N(C)C(=O)[C@H]1CCN(C(=O)C#CCN(C)C)C1)C(=O)N1CCC[C@H](N1)C(=O)OCC(C)(C)C2 (atropisomer, axis not shown) [Example A138]	10 to 100 nM	< 10	1000 to 10000 nM	1000 to 10000 nM	1000 to 10000 nM	< 5000	10 to 100	> 10000 nM	1000 to 10000 nM	100 to 1000 nM	–	–	–	–	–

— patent US11566007B2, “Ras inhibitors” (Revolution Medicines, Inc., priority 2019, dated 2023)
